Laboratory results: US12545695B2, “Compounds for inhibiting neovascularization factors and use thereof” (UNIST (ULSAN NATIONAL INSTITUTE OF SCIENCE AND TECHNOLOGY), priority 2019, dated 2026)

Key:
[1] = tested on: neovascularization factors; assay: Expression of neovascularization factors in Muller cells (western blot / PCR RNA level analysis); assay type: cell-based; conditions: MIO-M1, 1% O2 (FIG. 9)
Experimental: Muller cells were treated with gamitrinib and SMX at 3 uM and cultured in a 1% O2 environment for 8 hours, and then total RNA was extracted (Qiagen, total RNA extraction kit). cDNA was synthesized from 1 ug of total RNA (NEB, cDNA synthesis kit). After angiogenic factors were synthesized using PCR, the RNA level was analyzed by agarose electrophoresis.
Muller cells (MIO-M1) were cultured at 37° C. and 5% CO2, and DMEM-low glucose (Sigma) including 10% fetal bovine serum and 1% penicillin & streptomycin was used as the medium. A hypoxic chamber was maintained at 37° C., 5% CO2 and 1% O2. Muller cells (MIO-M1) were seeded in the number of 4×10^5 on a 60-millimeter plate and cultured in 3 ml of the medium for 24 hours. The next day, the cells were treated with SMx, a mitochondrial heat shock protein 90 (TRAP1) inhibitor, and gamitrinib and PU-H71, which are previously developed N-terminal domain inhibitors of hsp90s, according to the concentrations shown in the drawing, and cultured in a hypoxic chamber for 24 hours. Whole cell lysates were made from the cultured cells, electrophoresed, transferred to a PVDF membrane, and then treated with a primary antibody at 4° C. for 18 hours. The next day, the whole cell lysates were treated with a secondary antibody for 1 hour and protein expression was analyzed using a western blotting detection reagent.

TRAP-1 = assay: Pull-down assay: client proteins SIRT3 and SDHB on GST-TRAP1 beads; assay type: binding; conditions: TRAP1-bead form with isolated mitochondria and drug, 4° C., 18 hours (FIG. 14)
Experimental: A pull-down assay was performed to confirm whether SMx competitively binds to SIRT3 and SDHB, which are known as client proteins of TRAP-1. TRAP1 protein in the GST fusion form was purified from bacteria cells and then bound to glutathione beads to make a TRAP1-bead form, and then the TRAP1-bead form was bound to the mitochondria isolated from mammalian cells (Thermo Scientific mitochondria isolation kit) with a drug at 4° C. for 18 hours. The cells were treated with SMx, and gamitrinib and PU-H71, which are previously developed N-terminal domain inhibitors of hsp90s, as the drugs, according to the concentrations shown in the drawing. […] This is strong evidence that SMx has the ability to bind to the middle domain of TRAP-1.

TRAP1 = molecular target: T1, TRAP1 (Homo sapiens, UniProt Q12931); assay: Western blot of TRAP1 client proteins (SIRT3, SDHB) in 22Rv1 cell lines; assay type: cell-based; set-up: dose or concentration left out as unconfirmed; conditions: 22Rv1 cells, 2 hours, normalized with DMSO (FIG. 24)
T1 construct: endogenous in cells; host or cells: 22Rv1
T1 sequence (Q12931 60-704): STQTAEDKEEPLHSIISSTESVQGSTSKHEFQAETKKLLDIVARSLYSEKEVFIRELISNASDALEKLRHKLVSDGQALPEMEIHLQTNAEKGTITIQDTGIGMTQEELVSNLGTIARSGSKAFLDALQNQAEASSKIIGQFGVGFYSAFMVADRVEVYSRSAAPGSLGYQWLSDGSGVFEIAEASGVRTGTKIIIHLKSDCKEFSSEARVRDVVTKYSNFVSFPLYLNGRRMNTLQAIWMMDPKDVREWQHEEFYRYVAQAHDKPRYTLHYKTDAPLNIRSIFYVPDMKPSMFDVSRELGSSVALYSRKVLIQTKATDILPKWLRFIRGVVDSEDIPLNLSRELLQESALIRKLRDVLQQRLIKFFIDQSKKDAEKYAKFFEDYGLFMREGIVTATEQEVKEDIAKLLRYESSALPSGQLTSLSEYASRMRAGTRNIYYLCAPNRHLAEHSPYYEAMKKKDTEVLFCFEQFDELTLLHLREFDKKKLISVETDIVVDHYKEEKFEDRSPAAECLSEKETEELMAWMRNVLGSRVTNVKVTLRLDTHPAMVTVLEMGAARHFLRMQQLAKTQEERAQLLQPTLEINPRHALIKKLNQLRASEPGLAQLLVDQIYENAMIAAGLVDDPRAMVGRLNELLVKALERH
Experimental: 22Rv1 cell lines were cultured at 37° C. and 5% CO2, and DMEM-low glucose (Sigma) including 10% fetal bovine serum and 1% penicillin & streptomycin was used as the medium.
22Rv1 cell lines were eeded in the number of 5×10^5 on a 60-millimeter plate, and cultured in 3 ml of medium for 24 hours. The next day, the cells were treated with […] SMx and SM-series (SB-U005, SB-U009, SB-U011, SB-U012), mitochondrial heat shock protein 90 (TRAP1) and cultured for 2 hours. Whole cell lysates were made from the cultured cells, electrophoresed, transferred to a PVDF membrane, and then treated with a primary antibody at 4° C. for 18 hours. The next day, the whole cell lysates were treated with a secondary antibody for 1 hour and protein expression was analyzed using a western blotting detection reagent (FIG. 24).
The cultured cells were treated with the SMx molecule and novel compound molecules SB-U005, SB-U009, SB-U011, and SB-U012 synthesized in Example 6 as drugs, and the treatment results were normalized with DMSO.

With COC1=C(OC)C(=O)C(CCCCCCCCCC[P+](c2ccccc2)(c2ccccc2)c2ccccc2)=C(C)C1=O [SMx] the “expression of well-known neovascularization factors” value [1] was “suppressed”, the “binding of the client protein (SIRT3, SDHB) to TRAP-1” value (TRAP-1) was “significantly reduced” and the “concentrations of the client proteins (SIRT3, SDHB)” value (TRAP1) was “significantly decreased”.
